Two molecules from patent publication US11286236B2, “Compound, agent and composition for the suppression of cancer growth” (Vector Vitale IP LLC, priority 2018, dated 2022) can be followed below.

Experiment [1] deals with Mouse B16 melanoma cells (MM-4 cell line). Description: Cytotoxic/cytostatic activity of E2+85Rbe and antitumor drug added simultaneously. The experiment is classed as cell-based. On the procedure:
The effects of the complex action of various doses of the investigated substances were evaluated using the concept of synergistic, additive and antagonistic effects of the drugs. The mathematics are detailed below. […] The effects were calculated using the Chou-Talalay method according to the following equation (“CI” refers to the “combination index”) (see T.-C. […] Where both the ^85Rb-enriched rubidium salt (referred to as “E2+^85Rbe”) and an AD were administered, they were administered simultaneously.

For experiment [2], the system named is Mouse melanoma cells (MM-4 cell line). Description: Cytotoxic effect of E2+85Rbe and antitumor drug added 24 hours apart. The class given is cell-based. The procedure: The effectiveness of the method of the invention that comprises administering antitumor drugs and ^85Rb-enriched rubidium salt of N-benzoyl-N-(4-toluenesulfonyl)-o-phenylenediamine of formula I was measured in the experiment. […] Both orders were tested: AD administered first (Scheme 2, below), and AD administered second (Scheme 1, below).
Materials and Methods: Mouse melanoma cells (MM-4 cell line) were seeded into 96-well plates (TPP, Italy), in DMEM (Biowest, France) supplemented with 10% newborn calf serum (Biowest, France) and […] gentamicin (Sigma, USA) at a seeding density of 5×10^4 cells/ml. The cells were then cultured in an incubator with a humidified atmosphere of 5% CO2 in air at 37° C. The experiment was carried out in accordance with the three schemes given below. The experiment was started 24 hours after the cells were seeded. For this purpose, the agents used in the method were introduced into the appropriate wells. The following schemes of introduction were used for the study:
Scheme 1) The ^85Rb-enriched rubidium salt of N-benzoyl-N′-(4-toluenesulfonyl)-o-phenylenediamine of formula I was introduced at the first stage in the following amounts: 2.0 μg/ml, 1.0 μg/ml, 0, 5 μg/ml, and one antitumor drug was introduced at the second stage (after 24 hours).
Scheme 2) An AD was introduced at the first stage at doses as indicated in Scheme 1 above and ^85Rb-enriched rubidium salt of N-benzoyl-N′-(4-toluenesulfonyl)-o-phenylenediamine of formula I was introduced at the second stage (after 24 hours) at the following doses: 2.0 μg/ml, 1.0 μg/ml, 0.5 μg/ml.
After all the agents were added into the wells, the cells were incubated at 37° C. and 5% CO2 for another 72 hours (96 hours in total after the cells were seeded).
As in example 2, the cytotoxic effect was determined as the percentage of the cell number with respect to the control after their treatment in accordance with the claimed method. The effects of the drugs were evaluated visually, which allowed us to examine the morphological pattern of the cytotoxic action of the drugs, and by staining the cells with crystal violet, followed by OD measurement at an excitation wavelength of 540 nm using a MultiSkan microplate spectrophotometer.
The effects of the complex action of various doses of the investigated substances were evaluated using the concept of synergistic, additive and antagonistic effects of the drugs, as for Example 2, and calculating CI as described in Example 2.
Each table sets forth the % of MM-4 cells that survived in the presence of the drug doses indicated in the in vitro experiments described above, expressed as a percentage of the cells in the control wells.

Where a name gives a salt, the structure may show the parent alone.

In the case of `N.N.[Cl][Pt][Cl]` [cisplatin], the “% surviving MM-4 cells” value in experiment [1] (cisplatinum 0.5 μg/ml alone) is 84 ± 3.3%; in experiment [1] (cisplatinum 1 μg/ml alone), 51.7 ± 6.9%; in experiment [1] (cisplatinum 2.5 μg/ml alone) it was 24.6 ± 5.2%; in experiment [1] (cisplatinum 5 μg/ml alone) it was 13.8 ± 1.2%; in experiment [1] (cisplatinum 10 μg/ml alone), 2.6 ± 1.4%; in experiment [2] (cisplatinum 0.5 μg/ml alone, first stage), 84 ± 3.3%. For the same molecule, the “% surviving MM-4 cells” value came to 84.6 ± 3.5% in experiment [2] (cisplatinum 0.5 μg/ml alone, second stage); 51.7 ± 6.9% in experiment [2] (cisplatinum 1 μg/ml alone, first stage); 70 ± 3.6% in experiment [2] (cisplatinum 1 μg/ml alone, second stage); 24.6 ± 5.2% in experiment [2] (cisplatinum 2.5 μg/ml alone, first stage); 34 ± 2.6% in experiment [2] (cisplatinum 2.5 μg/ml alone, second stage); 13.8 ± 1.2% in experiment [2] (cisplatinum 5 μg/ml alone, first stage). Besides, the “% surviving MM-4 cells” value in experiment [2] (cisplatinum 5 μg/ml alone, second stage) worked out at 35.2 ± 3.3%; in experiment [2] (cisplatinum 10 μg/ml alone, first stage) it was 2.6 ± 1.4%; in experiment [2] (cisplatinum 10 μg/ml alone, second stage), 19.4 ± 0.9%.

Regarding `Cc1ccc(S(=O)(=O)Nc2ccccc2NC(=O)c2ccccc2)cc1` [^85Rbe − E2, ^85Rb-enriched rubidium salt of N-benzoyl-N′-(4-toluenesulfonyl)-o-phenylenediamine], the “% surviving MM-4 cells” value is given as 32.3 ± 0.7% in experiment [1] (E2+85Rbe 0.5 μg/ml alone); 8.3 ± 0.5% in experiment [1] (E2+85Rbe 1 μg/ml alone); 6.4 ± 0.3% in experiment [1] (E2+85Rbe 2 μg/ml alone); 32.3 ± 0.7% in experiment [2] (E2+85Rbe 0.5 μg/ml alone, first stage); 51 ± 1% in experiment [2] (E2+85Rbe 0.5 μg/ml alone, second stage (24 h later)); 8.3 ± 0.5% in experiment [2] (E2+85Rbe 1 μg/ml alone, first stage). The “% surviving MM-4 cells” value in experiment [2] (E2+85Rbe 1 μg/ml alone, second stage (24 h later)) was determined as 19 ± 0.5%; in experiment [2] (E2+85Rbe 2 μg/ml alone, first stage) it was 6.4 ± 0.3%; in experiment [2] (E2+85Rbe 2 μg/ml alone, second stage (24 h later)), 17.7 ± 0.8%.
